{"source": "paper PMC5556071", "about": "“ATR inhibition facilitates targeting of leukemia dependence on convergent nucleotide biosynthetic pathways” (Nature Communications, 2017)", "key": {"CEM cells [1]": {"test_system": "CEM cells", "assay": "Targeted LC-MS/MS-MRM of de novo and salvage dCTP biosynthesis (nucleotide pools and newly replicated DNA)", "assay_type": "cell-based, human", "method": "Cells were transferred into RPMI-1640 without glucose and supplemented with 10% dialyzed FBS (Gibco) containing the following labeled substrates: precursors for de novo [U-^13C6]glucose (Sigma-Aldrich, 389374) at 11 mM; precursors for purine salvage [U-^13C10,^15N5]dA (Cambridge Isotopes, CIL 3896), [^15N5]dA (Cambridge Isotopes, NLM-3895) and [^15N5]dG (Cambridge Isotopes, NLM-3899) at 5 µM or as indicated; and precursors for pyrimidine salvage: [U-^13C9,^15N3]dC (Silantes, 124603602) and [U-^13C10,^15N2]dT (Cambridge Isotopes, CNLM-3902) at 5 µM and [^15N2]orotate (Cambridge Isotopes, NLM-1048) at indicated concentrations. The cells were incubated for 12 h or as indicated before sample collection and processing.\nThe rates of dCTP incorporation into the DNA were determined using linear regression with procedure GLM in SAS (v. 9.4). DNA % label was transformed using a shifted log addition of 1 due to the presence of zeros in the data set. Rates were calculated using the slope of the regression line for the log transformed data and are presented in the table with the associated standard errors, along with the ratio between the rate of incorporation into DNA by the de novo and salvage pathways (Table 1).\nCell cycle synchronization. Cells were treated with a CDK4/6 inhibitor, Pablociclib or PD-0332991 (Selleckchem, S1116) for 18 h to synchronize them in the G1 phase. Subsequently, cells were washed twice with PBS containing 2% FBS (Omega Scientific) and released into fresh media. […]\nClinical Microarray Core on an Illumina HiSeq3000 using the SeqCap EZ Exome Enrichment Kit v3.0 (Roche).\nReads were mapped to UCSC hg19 (bwa-mem), deduplicaed (PicardTools), and subjected to base quality score recalibration and realignment around known indels according to the Broad Institute Genome Analysis Toolkit (GATK) Best Practices v3.0. Variants in genes associated with nucleotide biosynthesis were identified using the GATK HaplotypeCaller, and annotated with Oncotator (http://portals.broadinstitute.org/oncotator/). dNTP sample processing. 0.5 – 1 x 10^6 cells were collected into 1.5 mL microcentrifuge tubes and centrifuged (450 x g, 4 min, 4 °C). The supernatant was carefully aspirated and the cells were washed twice with 1 mL of cold PBS, followed each time by centrifugation (450 x g, 4 min 4 °C). The PBS were aspirated.\nThereafter, the pellets were treated with 10 µL of 10% trifluoroacetic acid with internal standards (1 µM […]\ns, and incubated on ice for 10 min. 40 µL of 500 mM ammonium acetate, pH = 9.3, with the same internal standard (1 µM [15N3]dCMP and [15N3]dCTP) was then added and the samples were vigorously vortexed again for 30 s. The samples were centrifuged (14,000 x g, 10 min, 4 °C) to remove cell debris. The supernatants (~ 40 µL) were transferred into HPLC injector vials. Stock solutions (10 mM) of rCTP, rCDP, dCMP, dCDP, and dCTP (Sigma Aldrich) were prepared individually in water, and stored at –20 °C before use to generate calibration standards. Calibration standards were prepared and mixed together in water with internal standards (1 µM [15N3]dCMP and [15N3]dCTP) to make working stock concentrations in 100 nM – 100 µM range.\nCalibration standards were diluted 10-fold into the same nucleotide extraction solution of 10% TFA/500 mM ammonium acetate (1:4, v/v) with internal standards (1 µM [15N3]dCMP and [15N3]dCTP) to give a final concentration in 10 nM – 10 µM. Nucleotide and calibration samples were processed together to minimize […]\nDNA sample processing. Genomic DNA from 0.5 – 1 x 10^4 cells was extracted using the Quick-gDNA MiniPrep kit (Zymo Research, D3021) and hydrolyzed to nucleosides using the DNA Degradase Plus kit (Zymo Research, E2021), following manufacturer-supplied instructions. In the final step of DNA extraction, 50 µL of […]\nwater was used to elute the DNA into 1.5 mL microcentrifuge tubes. A nuclease solution (5 µL; 10X buffer/DNA Degradase Plus™/water, 2.5/1/1.5, v/v/v) was added to 20 µL of the eluted genomic DNA in an HPLC injector […]\nvial. […]"}, "CEM cells [2]": {"test_system": "CEM cells", "assay": "Apoptosis assay, Annexin V and PI staining", "assay_type": "cell-based, human", "conditions": "500 nM 3-AP, 1 µM VE-822, 1 µM dCKi, 24 h", "method": "Apoptosis and cell death were assayed using Annexin V-FITC and PI according to manufacturer’s instructions (FITC Annexin V Apoptosis Detection Kit, BD Sciences, #556570). […]\nAnnexin V staining. Cells were treated with the indicated treatments for 24 or 72 h, then collected and washed twice with 1 mL of FACS buffer (2% FBS in PBS). Induction of apoptosis and cell death were assayed by staining the cells with Annexin V-FITC and PI according to manufacturer’s instructions (FITC Annexin V Apoptosis Detection Kit, BD Sciences, #556570).\nFACS analysis. All flow cytometry data were acquired on five-laser LSRII cytometers (BD) for analysis, and analyzed using FlowJo software (Tree Star). […]"}, "[3]": {"conditions": "CEM 12 h, 1 uM VE-822, 1 uM DI-82, 500 nM 3-AP, #1-#3"}}, "note": "Several values for one entry are separate records, joined by “and”; a condition that tells them apart may be missing. Identical values can stand only once."}
{"smiles": "NC(=S)N/N=C/c1ncccc1N", "note": "[3-AP]", "values": [{"measurement": "% sum abundance, de novo DNA-C, mass increase in nucleobase +0, in deoxyribose +3", "setting": "CEM cells [1]; [3]", "value": "0.0554% and 0.0456% and 0.04%"}, {"measurement": "% sum abundance, de novo DNA-C, mass increase in nucleobase +0, in deoxyribose +4", "setting": "CEM cells [1]; [3]", "value": "0.02% and 0.0358% and 0.0465%"}, {"measurement": "% sum abundance, de novo DNA-C, mass increase in nucleobase +0, in deoxyribose +5", "setting": "CEM cells [1]; [3]", "value": "0.55% and 0.53% and 0.50%"}, {"measurement": "% sum abundance, de novo DNA-C, mass increase in nucleobase +1, in deoxyribose +3", "setting": "CEM cells [1]; [3]", "value": 0.00, "unit": "%"}, {"measurement": "% sum abundance, de novo DNA-C, mass increase in nucleobase +1, in deoxyribose +4", "setting": "CEM cells [1]; [3]", "value": 0.00, "unit": "%"}, {"measurement": "% sum abundance, de novo DNA-C, mass increase in nucleobase +1, in deoxyribose +5", "setting": "CEM cells [1]; [3]", "value": "0.07% and 0.0542% and 0.0459%"}, {"measurement": "% sum abundance, de novo DNA-C, mass increase in nucleobase +2, in deoxyribose +4", "setting": "CEM cells [1]; [3]", "value": 0.00, "unit": "%"}, {"measurement": "% sum abundance, de novo DNA-C, mass increase in nucleobase +2, in deoxyribose +5", "setting": "CEM cells [1]; [3]", "value": "0.0465% and 0.04% and 0.032%"}, {"measurement": "% sum abundance, de novo DNA-C, mass increase in nucleobase +3, in deoxyribose +4", "setting": "CEM cells [1]; [3]", "value": 0.00, "unit": "%"}, {"measurement": "% sum abundance, de novo DNA-C, mass increase in nucleobase +3, in deoxyribose +5", "setting": "CEM cells [1]; [3]", "value": 0.00, "unit": "%"}, {"measurement": "% sum abundance, de novo DNA-C, mass increase in nucleobase +4, in deoxyribose +4", "setting": "CEM cells [1]; [3]", "value": 0.00, "unit": "%"}, {"measurement": "% sum abundance, de novo DNA-C, mass increase in nucleobase +4, in deoxyribose +5", "setting": "CEM cells [1]; [3]", "value": 0.00, "unit": "%"}, {"measurement": "% sum abundance, salvage DNA-C, mass increase in nucleobase +5, in deoxyribose +0", "setting": "CEM cells [1]; [3]", "value": 0.00, "unit": "%"}, {"measurement": "% sum abundance, salvage DNA-C, mass increase in nucleobase +5, in deoxyribose +4", "setting": "CEM cells [1]; [3]", "value": 0.00, "unit": "%"}, {"measurement": "% sum abundance, salvage DNA-C, mass increase in nucleobase +5, in deoxyribose +5", "setting": "CEM cells [1]; [3]", "value": 0.00, "unit": "%"}, {"measurement": "% sum abundance, salvage DNA-C, mass increase in nucleobase +6, in deoxyribose +0", "setting": "CEM cells [1]; [3]", "value": 0.00, "unit": "%"}, {"measurement": "% sum abundance, salvage DNA-C, mass increase in nucleobase +6, in deoxyribose +4", "setting": "CEM cells [1]; [3]", "value": 0.00, "unit": "%"}, {"measurement": "% sum abundance, salvage DNA-C, mass increase in nucleobase +6, in deoxyribose +5", "setting": "CEM cells [1]; [3]", "value": "0.39% and 0.40%"}, {"measurement": "% sum abundance, salvage DNA-C, mass increase in nucleobase +7, in deoxyribose +0", "setting": "CEM cells [1]; [3]", "value": 0.00, "unit": "%"}, {"measurement": "% sum abundance, salvage DNA-C, mass increase in nucleobase +7, in deoxyribose +4", "setting": "CEM cells [1]; [3]", "value": "0.23% and 0.25%"}, {"measurement": "% sum abundance, salvage DNA-C, mass increase in nucleobase +7, in deoxyribose +5", "setting": "CEM cells [1]; [3]", "value": "4.69% and 4.96% and 4.68%"}, {"measurement": "% sum abundance, unlabeled DNA-C, mass increase in nucleobase +0, in deoxyribose +0", "setting": "CEM cells [1]; [3]", "value": "83.63% and 83.39% and 83.92%"}, {"measurement": "% sum abundance, unlabeled DNA-C, mass increase in nucleobase +0, in deoxyribose +1", "setting": "CEM cells [1]; [3]", "value": "4.68% and 4.72% and 4.61%"}, {"measurement": "% sum abundance, unlabeled DNA-C, mass increase in nucleobase +0, in deoxyribose +2", "setting": "CEM cells [1]; [3]", "value": "0.67% and 0.60% and 0.58%"}, {"measurement": "% sum abundance, unlabeled DNA-C, mass increase in nucleobase +1, in deoxyribose +0", "setting": "CEM cells [1]; [3]", "value": "4.40% and 4.42% and 4.39%"}, {"measurement": "% sum abundance, unlabeled DNA-C, mass increase in nucleobase +1, in deoxyribose +1", "setting": "CEM cells [1]; [3]", "value": 0.26, "unit": "%"}, {"measurement": "% sum abundance, unlabeled DNA-C, mass increase in nucleobase +1, in deoxyribose +2", "setting": "CEM cells [1]; [3]", "value": 0.00, "unit": "%"}, {"measurement": "% sum abundance, unlabeled DNA-C, mass increase in nucleobase +2, in deoxyribose +0", "setting": "CEM cells [1]; [3]", "value": "0.31% and 0.29% and 0.26%"}, {"measurement": "% sum abundance, unlabeled DNA-C, mass increase in nucleobase +2, in deoxyribose +1", "setting": "CEM cells [1]; [3]", "value": 0.00, "unit": "%"}, {"measurement": "% sum abundance, unlabeled DNA-C, mass increase in nucleobase +2, in deoxyribose +2", "setting": "CEM cells [1]; [3]", "value": 0.00, "unit": "%"}, {"measurement": "% sum abundance, unlabeled DNA-C, mass increase in nucleobase +3, in deoxyribose +0", "setting": "CEM cells [1]; [3]", "value": 0.00, "unit": "%"}, {"measurement": "% sum abundance, unlabeled DNA-C, mass increase in nucleobase +3, in deoxyribose +1", "setting": "CEM cells [1]; [3]", "value": 0.00, "unit": "%"}, {"measurement": "% sum abundance, unlabeled DNA-C, mass increase in nucleobase +4, in deoxyribose +0", "setting": "CEM cells [1]; [3]", "value": 0.00, "unit": "%"}, {"measurement": "increase of incorporation of salvage-produced dCTP into DNA", "setting": "CEM cells [1]; CEM, 500 nM 3-AP, 12 h", "value": "> 1.5", "unit": "fold"}, {"measurement": "rCTP and rCDP pools", "setting": "CEM cells [1]; CEM, 500 nM 3-AP, 12 h", "value": "doubled"}, {"measurement": "reduction in the incorporation of de novo produced dCTP into DNA", "setting": "CEM cells [1]; CEM, 500 nM 3-AP, 12 h", "value": "~ 19 fold"}, {"measurement": "salvage dC nucleotide pools", "setting": "CEM cells [1]; CEM, 500 nM 3-AP, 12 h", "value": "doubled"}, {"measurement": "increase of salvage contributions to the dCMP, dCDP and dCTP pools", "setting": "CEM cells [1]; asynchronous CEM, 12 h", "value": "approximately twofold"}, {"measurement": "Annexin V+ cells (apoptosis induction)", "setting": "CEM cells [2]", "value": 31.0, "unit": "%"}]}
